In the NIST ThermoML archive (doi:10.1016/j.jct.2013.05.009):

Test: xn = mol fraction of the nth substance listed
Conditions: 101 kPa, Liquid; for mass density: Vibrating tube method; for speed of sound: fixed-path interferometer

CC(C)CC(C)(C)C [2,2,4-trimethylpentane] + CCCCO
Conditions | mass density, 298.15 K [kg/m3] | mass density, 308.15 K [kg/m3] | mass density, 318.15 K [kg/m3] | mass density, 328.15 K [kg/m3] | speed of sound, 298.15 K [m/s] | speed of sound, 308.15 K [m/s] | speed of sound, 318.15 K [m/s] | speed of sound, 328.15 K [m/s]
x1 = 0.03101 | 799.41 | 791.7 | 783.95 | 776.09 | 1229.7 | 1195.8 | 1162.1 | 1128.6
x1 = 0.07555 | 790.82 | 783.03 | 775.22 | 767.29 | 1216 | 1181.3 | 1146.9 | 1112.6
x1 = 0.1426 | 778.75 | 770.87 | 762.95 | 754.91 | 1196.8 | 1161.1 | 1125.6 | 1090.3
x1 = 0.2049 | 768.51 | 760.53 | 752.52 | 744.39 | 1180.8 | 1144.2 | 1107.8 | 1071.7
x1 = 0.2621 | 759.76 | 751.67 | 743.61 | 735.41 | 1167.3 | 1130 | 1092.5 | 1056.1
x1 = 0.3176 | 751.87 | 743.75 | 735.6 | 727.34 | 1155.5 | 1117.5 | 1079.8 | 1042.5
x1 = 0.3932 | 741.94 | 733.74 | 725.51 | 717.19 | 1141.1 | 1102.3 | 1063.9 | 1025.9
x1 = 0.4553 | 734.44 | 726.18 | 717.92 | 709.56 | 1130.7 | 1091.4 | 1052.6 | 1014.1
x1 = 0.5458 | 724.43 | 716.13 | 707.81 | 699.42 | 1117.4 | 1077.5 | 1038.1 | 999.2
x1 = 0.6067 | 718.27 | 709.93 | 701.6 | 693.2 | 1109.8 | 1069.5 | 1029.7 | 990.4
x1 = 0.6787 | 711.51 | 703.15 | 694.8 | 686.39 | 1101.9 | 1061.3 | 1021.1 | 981.6
x1 = 0.742 | 706.01 | 697.65 | 689.3 | 680.9 | 1095.9 | 1055.1 | 1014.7 | 974.8
x1 = 0.8095 | 700.58 | 692.21 | 683.87 | 675.5 | 1090.6 | 1049.5 | 1008.8 | 968.8
x1 = 0.8683 | 696.2 | 687.84 | 679.5 | 671.13 | 1086.7 | 1045.4 | 1004.6 | 964.3
x1 = 0.9078 | 693.42 | 685.07 | 676.75 | 668.4 | 1084.5 | 1043.1 | 1002.2 | 961.8
x1 = 0.9422 | 691.1 | 682.76 | 674.47 | 666.16 | 1082.9 | 1041.5 | 1000.6 | 960.2
x1 = 0.9619 | 689.83 | 681.51 | 673.25 | 664.98 | 1082.3 | 1040.7 | 1000 | 959.7
x1 = 0.981 | 688.66 | 680.37 | 672.16 | 663.97 | 1082.1 | 1040.9 | 1000.1 | 959.7
x1 = 1 | 687.68 | 679.45 | 671.3 | 663.17 | 1082.7 | 1041.1 | 1000.1 | 959.4

CCCCO [butan-1-ol] + Cc1ccccc1
Conditions | mass density, 298.15 K [kg/m3] | mass density, 308.15 K [kg/m3] | mass density, 318.15 K [kg/m3] | mass density, 328.15 K [kg/m3] | speed of sound, 298.15 K [m/s] | speed of sound, 308.15 K [m/s] | speed of sound, 318.15 K [m/s] | speed of sound, 328.15 K [m/s]
x2 = 0 | 805.71 | 798.05 | 790.36 | 782.56 | 1240 | 1206.6 | 1173.4 | 1140.4
x2 = 0.02621 | 807.5 | 799.76 | 791.98 | 784.09 | 1241.1 | 1207.3 | 1173.8 | 1140.4
x2 = 0.06979 | 810.42 | 802.54 | 794.62 | 786.6 | 1242.9 | 1208.6 | 1174.5 | 1140.6
x2 = 0.1334 | 814.51 | 806.45 | 798.34 | 790.12 | 1245.4 | 1210.3 | 1175.4 | 1140.8
x2 = 0.1909 | 818.08 | 809.86 | 801.59 | 793.21 | 1247.6 | 1211.8 | 1176.3 | 1141
x2 = 0.2606 | 822.26 | 813.87 | 805.42 | 796.86 | 1250.1 | 1213.6 | 1177.4 | 1141.5
x2 = 0.3391 | 826.8 | 818.22 | 809.59 | 800.85 | 1252.9 | 1215.6 | 1178.6 | 1142
x2 = 0.4066 | 830.59 | 821.86 | 813.1 | 804.22 | 1255.4 | 1217.5 | 1180 | 1142.8
x2 = 0.473 | 834.2 | 825.36 | 816.47 | 807.48 | 1258 | 1219.6 | 1181.6 | 1144.1
x2 = 0.5406 | 837.84 | 828.87 | 819.88 | 810.78 | 1261 | 1222 | 1183.7 | 1145.7
x2 = 0.6007 | 841.01 | 831.96 | 822.88 | 813.7 | 1263.9 | 1224.6 | 1185.9 | 1147.6
x2 = 0.6711 | 844.68 | 835.54 | 826.37 | 817.12 | 1267.8 | 1228.2 | 1189.1 | 1150.5
x2 = 0.7376 | 848.14 | 838.93 | 829.68 | 820.37 | 1272.3 | 1232.3 | 1192.8 | 1154
x2 = 0.7967 | 851.2 | 841.92 | 832.63 | 823.27 | 1277 | 1236.8 | 1197.1 | 1158
x2 = 0.8691 | 854.94 | 845.61 | 836.27 | 826.88 | 1284.3 | 1243.8 | 1203.8 | 1164.4
x2 = 0.9327 | 858.35 | 848.98 | 839.62 | 830.24 | 1293.6 | 1252.7 | 1212.2 | 1171.9
x2 = 0.9649 | 860.1 | 850.75 | 841.43 | 832.09 | 1299.9 | 1258.4 | 1217 | 1175.9
